Here are results for 7 compounds from US10975394B2, “Recombinant microorganisms for enhanced production of mevalonate, isoprene, and isoprenoids” (Danisco US Inc., priority 2011, dated 2021).

Assay [1] deals with M. mazei mevalonate kinase (Methanosarcina mazei, UniProt Q8PW39). The assay can be described thus: Mevalonate kinase coupled spectrophotometric kinetic and inhibition assay. It counts as biochemical. The following applies: for Vmax / α / kcat / Ka/b: random bireactant system model; for kcat: 80 nM purified enzyme, varying mevalonate and ATP; for Ka/b: Ka(Mev), Kb(ATP).
For assay [2], the target named is M. burtonii mevalonate kinase (Methanococcoides burtonii, UniProt Q12TI0). The description is as above. As to conditions: for kcat: 40 nM purified enzyme, varying mevalonate and ATP. It counts as biochemical.
The subject of assay [3] is engineered E. coli strains. It counts as cell-based.
[4] abbreviates: inhibitor added at various concentrations to the reaction mix, read-out: Ki.

pKi: −log10 of the molar value. Where two headings read alike, the source gives them in different places.

Sequence of M. burtonii mevalonate kinase (Q12TI0 entry or part of it): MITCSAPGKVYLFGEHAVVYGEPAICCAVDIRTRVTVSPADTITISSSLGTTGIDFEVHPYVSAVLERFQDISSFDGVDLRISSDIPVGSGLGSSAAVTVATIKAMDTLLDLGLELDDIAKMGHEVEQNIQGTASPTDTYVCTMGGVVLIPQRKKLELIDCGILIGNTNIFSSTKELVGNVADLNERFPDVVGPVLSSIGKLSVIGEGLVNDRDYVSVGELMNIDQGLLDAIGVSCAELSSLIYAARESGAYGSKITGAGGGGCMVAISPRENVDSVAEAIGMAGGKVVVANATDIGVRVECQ
Sequence of M. mazei mevalonate kinase (Q8PW39 entry or part of it): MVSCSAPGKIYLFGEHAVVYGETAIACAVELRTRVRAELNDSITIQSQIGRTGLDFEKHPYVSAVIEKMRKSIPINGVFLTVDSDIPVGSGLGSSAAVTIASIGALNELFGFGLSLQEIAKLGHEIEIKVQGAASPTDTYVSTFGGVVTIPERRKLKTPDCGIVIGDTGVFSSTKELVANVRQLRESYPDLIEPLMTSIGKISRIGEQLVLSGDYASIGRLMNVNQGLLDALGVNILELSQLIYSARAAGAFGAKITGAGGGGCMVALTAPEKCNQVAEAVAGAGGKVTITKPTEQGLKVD

Turning to `Nc1ncnc2c1ncn2[C@@H]1O[C@H](COP(=O)(O)OP(=O)(O)OP(=O)(O)O)[C@@H](O)[C@H]1O` [ATP, Adenosine triphosphate], in assay [1], the Vmax (in general, the top rate of the reaction or transport when substrate is in excess) stood at 2.14 µM/s; the α was 1.62; the catalytic constant (kcat) (as a rule, the maximal rate divided by the concentration of active sites) was 26.8 s⁻¹; the Ka/b stood at 460 µM. The compound further came in with a Ka/b in assay [2] of 212 µM. Besides, in assay [2] (random bireactant system model), the maximum rate (Vmax) was determined as 2.97 µM/s, the α turned out to be 3.74 and the kcat was found to be 74.3 s⁻¹.
Take `CC(C)=CCOP(=O)(O)OP(=O)(O)O` [DMAPP, dimethylallyl diphosphate, reference compound]: the negative logarithm of the Ki (pKi) in assay [1] and in assay [2] was below 2.30 throughout.
On to `CC(C)=CCC/C(C)=C/COP(=O)(O)OP(=O)(O)O` [GPP, geranyl pyrophosphate, reference compound], for which the pKi in assay [1] (setting [4]) and in assay [2] (setting [4]) was below 2.30 each time.
Turning to `C=C(C)CCO[P@@](=O)(O)OP(=O)(O)O` [IPP, isopentenyl pyrophosphate, reference compound], the pKi in assay [1] and in assay [2] was below 2.30 throughout.
Consider `CC(O)(CCOP(=O)(O)O)CC(=O)O` (stereo not shown) [MVP, reference compound], for which the negative logarithm of the Ki (pKi) in assay [1] (setting [4]) and in assay [2] (setting [4]) was below 2.52 throughout.
Take `C[C@@](O)(CCOP(=O)(O)OP(=O)(O)O)CC(=O)O` [MVPP, reference compound]: the figures for the pKi in assay [1] (setting [4]) and in assay [2] (setting [4]) were below 3.00 and below 2.30, respectively.
As for `CC(O)(CCO)CC(=O)O` (stereo not shown) [Mevalonate, mevalonate], in assay [1], the maximum rate (Vmax) came to 1.46 µM/s, the α stood at 0.23, the kcat worked out at 18.3 s⁻¹ and the Ka/b stood at 397 µM. In assay [3] (strain MCM2131, mevalonate between 0 and 16 mM), the “growth inhibition by mevalonate” value is reported as “not inhibited”. The “growth inhibition by mevalonate” value in assay [3] (strains MCM2125, MCM2127 and MCM2130, mevalonate 0-16 mM) is given as “not inhibited”. For the same compound, in assay [2] (random bireactant system model), the maximum rate (Vmax) was found to be 1.78 µM/s, the α is 0.52 and the kcat is 44.4 s⁻¹. Moreover, the Ka/b in assay [2] (random bireactant system model, Ka(Mev), Kb(ATP)) was 391 µM.
